{"source": "ChEMBL document CHEMBL1138895", "about": "“Synthesis and antibacterial activity of nocathiacin I analogues” (Bioorg Med Chem Lett, 2006)", "key": {"Staphylococcus aureus": {"test_system": "Staphylococcus aureus", "experiment": "Antibacterial activity against methicillin-sensitive Staphylococcus aureus A15090", "format": "functional"}, "Streptococcus pneumoniae": {"test_system": "Streptococcus pneumoniae", "experiment": "Antibacterial activity against penicillin resistant Streptococcus pneumoniae A28272", "format": "functional"}, "Enterococcus faecalis": {"test_system": "Enterococcus faecalis", "experiment": "Antibacterial activity against […] A20688", "format": "functional"}, "Mus musculus": {"species_on_record": "Mus musculus", "experiment": "Activity against Staphylococcus aureus A15090 infected ICR mouse after 8 days", "format": "functional", "conditions": "192 h, read-out: PD50"}, "[1]": {"experiment": "Solubility at pH 2.8", "format": "physicochemical", "conditions": "buffer"}, "[2]": {"experiment": "Solubility at pH 8.4", "format": "physicochemical", "conditions": "buffer"}, "[3]": {"experiment": "Solubility at pH 3.5", "format": "physicochemical", "conditions": "buffer"}, "[4]": {"experiment": "Solubility at pH 4.0", "format": "physicochemical", "conditions": "buffer"}, "[5]": {"experiment": "Solubility at pH 3.4", "format": "physicochemical", "conditions": "buffer"}, "[6]": {"experiment": "Solubility at pH 3.3", "format": "physicochemical", "conditions": "buffer"}, "[7]": {"experiment": "Solubility at pH 3.8", "format": "physicochemical", "conditions": "buffer"}, "[8]": {"experiment": "Solubility at pH 8.1", "format": "physicochemical", "conditions": "buffer"}, "[9]": {"experiment": "Solubility at pH 3.1", "format": "physicochemical", "conditions": "buffer"}, "[10]": {"experiment": "Solubility at pH 8.7", "format": "physicochemical", "conditions": "buffer"}}}
{"smiles": "CO/C(C)=C1/NC(=O)[C@H]([C@@H](C)O)NC(=O)c2csc(n2)-c2cc(O)c(-c3nc(C(=O)N[C@@H](C)C(=O)NCCCO)cs3)nc2-c2csc(n2)[C@@H]2COC(=O)c3c4c5c(cccc5n3O)COC(=O)[C@@H](O[C@H]3C[C@](C)(O)[C@H](N(C)C)[C@H](C)O3)[C@@H](OC4)[C@H](NC(=O)c3csc1n3)c1nc(cs1)C(=O)N2", "values": [{"measurement": "MIC", "setting": "Staphylococcus aureus", "value": 0.06, "unit": "µg/mL"}, {"measurement": "MIC", "setting": "Streptococcus pneumoniae", "value": 0.007, "unit": "µg/mL"}, {"measurement": "MIC", "setting": "Enterococcus faecalis", "value": 0.03, "unit": "µg/mL"}, {"measurement": "ED50", "setting": "Mus musculus", "value": 1.25, "unit": "mg/kg"}, {"measurement": "solubility", "setting": "[1]", "value": 2700, "unit": "µg/mL"}]}
{"smiles": "CO/C(C)=C1/NC(=O)[C@H]([C@@H](C)O)NC(=O)c2csc(n2)-c2cc(O)c(-c3nc(C(=O)N[C@@H](C)C(=O)NCCS(=O)(=O)O)cs3)nc2-c2csc(n2)[C@@H]2COC(=O)c3c4c5c(cccc5n3O)COC(=O)[C@@H](O[C@H]3C[C@](C)(O)[C@H](N(C)C)[C@H](C)O3)[C@@H](OC4)[C@H](NC(=O)c3csc1n3)c1nc(cs1)C(=O)N2", "values": [{"measurement": "solubility", "setting": "[2]", "value": "> 2100", "unit": "µg/mL"}, {"measurement": "MIC", "setting": "Staphylococcus aureus", "value": 0.25, "unit": "µg/mL"}, {"measurement": "MIC", "setting": "Streptococcus pneumoniae", "value": 0.03, "unit": "µg/mL"}, {"measurement": "MIC", "setting": "Enterococcus faecalis", "value": 0.25, "unit": "µg/mL"}, {"measurement": "ED50", "setting": "Mus musculus", "value": "> 10", "unit": "mg/kg"}]}
{"smiles": "CO/C(C)=C1/NC(=O)[C@H]([C@@H](C)O)NC(=O)c2csc(n2)-c2cc(O)c(-c3nc(C(=O)N[C@@H](C)C(=O)NCCN(C)C)cs3)nc2-c2csc(n2)[C@@H]2COC(=O)c3c4c5c(cccc5n3O)COC(=O)[C@@H](O[C@H]3C[C@](C)(O)[C@H](N(C)C)[C@H](C)O3)[C@@H](OC4)[C@H](NC(=O)c3csc1n3)c1nc(cs1)C(=O)N2", "values": [{"measurement": "solubility", "setting": "[3]", "value": "> 2400", "unit": "µg/mL"}, {"measurement": "MIC", "setting": "Staphylococcus aureus", "value": 0.125, "unit": "µg/mL"}, {"measurement": "MIC", "setting": "Streptococcus pneumoniae", "value": 0.125, "unit": "µg/mL"}, {"measurement": "MIC", "setting": "Enterococcus faecalis", "value": 0.25, "unit": "µg/mL"}]}
{"smiles": "C=C(NC(=O)c1csc(-c2nc3c(cc2O)-c2nc(cs2)C(=O)N[C@@H]([C@@H](C)O)C(=O)N/C(=C(\\C)OC)c2nc(cs2)C(=O)N[C@@H]2c4nc(cs4)C(=O)N[C@@H](COC(=O)c4c5c6c(cccc6n4O)COC(=O)[C@@H](O[C@H]4C[C@](C)(O)[C@H](N(C)C)[C@H](C)O4)[C@H]2OC5)c2nc-3cs2)n1)C(N)=O", "note": "[MJ347-81F4 A]", "values": [{"measurement": "MIC", "setting": "Staphylococcus aureus", "value": 0.007, "unit": "µg/mL"}, {"measurement": "MIC", "setting": "Streptococcus pneumoniae", "value": 0.002, "unit": "µg/mL"}, {"measurement": "MIC", "setting": "Enterococcus faecalis", "value": 0.03, "unit": "µg/mL"}, {"measurement": "ED50", "setting": "Mus musculus", "value": 0.8, "unit": "mg/kg"}, {"measurement": "solubility", "setting": "[4]", "value": 340, "unit": "µg/mL"}]}
{"smiles": "CO/C(C)=C1/NC(=O)[C@H]([C@@H](C)O)NC(=O)c2csc(n2)-c2cc(O)c(-c3nc(C(=O)N[C@@H](C)C(=O)N(CCO)CCO)cs3)nc2-c2csc(n2)[C@@H]2COC(=O)c3c4c5c(cccc5n3O)COC(=O)[C@@H](O[C@H]3C[C@](C)(O)[C@H](N(C)C)[C@H](C)O3)[C@@H](OC4)[C@H](NC(=O)c3csc1n3)c1nc(cs1)C(=O)N2", "values": [{"measurement": "MIC", "setting": "Staphylococcus aureus", "value": 0.25, "unit": "µg/mL"}, {"measurement": "MIC", "setting": "Streptococcus pneumoniae", "value": 0.25, "unit": "µg/mL"}, {"measurement": "MIC", "setting": "Enterococcus faecalis", "value": 0.5, "unit": "µg/mL"}, {"measurement": "ED50", "setting": "Mus musculus", "value": "> 10", "unit": "mg/kg"}, {"measurement": "solubility", "setting": "[5]", "value": "> 1200", "unit": "µg/mL"}]}
{"smiles": "CO/C(C)=C1/NC(=O)[C@H]([C@@H](C)O)NC(=O)c2csc(n2)-c2cc(O)c(-c3nc(C(=O)N[C@@H](C)C(=O)NCCCOC4O[C@H](CO)[C@@H](O)[C@H](O)[C@H]4O)cs3)nc2-c2csc(n2)[C@@H]2COC(=O)c3c4c5c(cccc5n3O)COC(=O)[C@@H](O[C@H]3C[C@](C)(O)[C@H](N(C)C)[C@H](C)O3)[C@@H](OC4)[C@H](NC(=O)c3csc1n3)c1nc(cs1)C(=O)N2", "note": "(stereo not given in full)", "values": [{"measurement": "MIC", "setting": "Staphylococcus aureus", "value": 4, "unit": "µg/mL"}, {"measurement": "MIC", "setting": "Streptococcus pneumoniae", "value": 1, "unit": "µg/mL"}, {"measurement": "MIC", "setting": "Enterococcus faecalis", "value": 8, "unit": "µg/mL"}, {"measurement": "solubility", "setting": "[1]", "value": "> 2000", "unit": "µg/mL"}]}
{"smiles": "CO/C(C)=C1/NC(=O)[C@H]([C@@H](C)O)NC(=O)c2csc(n2)-c2cc(O)c(-c3nc(C(=O)N[C@@H](C)C(=O)N4CCC(P(=O)(OC)OC)CC4)cs3)nc2-c2csc(n2)[C@@H]2COC(=O)c3c4c5c(cccc5n3O)COC(=O)[C@@H](O[C@H]3C[C@](C)(O)[C@H](N(C)C)[C@H](C)O3)[C@@H](OC4)[C@H](NC(=O)c3csc1n3)c1nc(cs1)C(=O)N2", "values": [{"measurement": "MIC", "setting": "Staphylococcus aureus", "value": 0.015, "unit": "µg/mL"}, {"measurement": "MIC", "setting": "Streptococcus pneumoniae", "value": 0.015, "unit": "µg/mL"}, {"measurement": "MIC", "setting": "Enterococcus faecalis", "value": 0.03, "unit": "µg/mL"}, {"measurement": "solubility", "setting": "[6]", "value": "> 3000", "unit": "µg/mL"}]}
{"smiles": "CO/C(C)=C1/NC(=O)[C@H]([C@@H](C)O)NC(=O)c2csc(n2)-c2cc(O)c(-c3nc(C(=O)N[C@@H](C)C(=O)NCc4cc(O)cc(O)c4)cs3)nc2-c2csc(n2)[C@@H]2COC(=O)c3c4c5c(cccc5n3O)COC(=O)[C@@H](O[C@H]3C[C@](C)(O)[C@H](N(C)C)[C@H](C)O3)[C@@H](OC4)[C@H](NC(=O)c3csc1n3)c1nc(cs1)C(=O)N2", "values": [{"measurement": "solubility", "setting": "[7]", "value": "< 0.3", "unit": "µg/mL"}, {"measurement": "MIC", "setting": "Staphylococcus aureus", "value": 1, "unit": "µg/mL"}, {"measurement": "MIC", "setting": "Streptococcus pneumoniae", "value": 0.25, "unit": "µg/mL"}, {"measurement": "MIC", "setting": "Enterococcus faecalis", "value": 2, "unit": "µg/mL"}]}
{"smiles": "CO/C(C)=C1/NC(=O)[C@H]([C@@H](C)O)NC(=O)c2csc(n2)-c2cc(O)c(-c3nc(C(=O)N[C@@H](C)C(=O)NCCCP(=O)([O-])O)cs3)nc2-c2csc(n2)[C@@H]2COC(=O)c3c4c5c(cccc5n3O)COC(=O)[C@@H](O[C@H]3C[C@](C)(O)[C@H](N(C)C)[C@H](C)O3)[C@@H](OC4)[C@H](NC(=O)c3csc1n3)c1nc(cs1)C(=O)N2.[Na+]", "values": [{"measurement": "solubility", "setting": "[8]", "value": "> 1700", "unit": "µg/mL"}, {"measurement": "MIC", "setting": "Staphylococcus aureus", "value": 8, "unit": "µg/mL"}, {"measurement": "MIC", "setting": "Streptococcus pneumoniae", "value": 0.25, "unit": "µg/mL"}, {"measurement": "MIC", "setting": "Enterococcus faecalis", "value": 32, "unit": "µg/mL"}]}
{"smiles": "CO/C(C)=C1/NC(=O)[C@H]([C@@H](C)O)NC(=O)c2csc(n2)-c2cc(O)c(-c3nc(C(=O)N[C@@H](C)C(=O)N(C)CCO)cs3)nc2-c2csc(n2)[C@@H]2COC(=O)c3c4c5c(cccc5n3O)COC(=O)[C@@H](O[C@H]3C[C@](C)(O)[C@H](N(C)C)[C@H](C)O3)[C@@H](OC4)[C@H](NC(=O)c3csc1n3)c1nc(cs1)C(=O)N2", "values": [{"measurement": "MIC", "setting": "Staphylococcus aureus", "value": 0.06, "unit": "µg/mL"}, {"measurement": "MIC", "setting": "Streptococcus pneumoniae", "value": 0.003, "unit": "µg/mL"}, {"measurement": "MIC", "setting": "Enterococcus faecalis", "value": 0.03, "unit": "µg/mL"}, {"measurement": "ED50", "setting": "Mus musculus", "value": 1.65, "unit": "mg/kg"}, {"measurement": "solubility", "setting": "[4]", "value": 2300, "unit": "µg/mL"}, {"measurement": "solubility", "setting": "[9]", "value": 2300, "unit": "µg/mL"}]}
{"smiles": "CO/C(C)=C1/NC(=O)[C@H]([C@@H](C)O)NC(=O)c2csc(n2)-c2cc(O)c(-c3nc(C(=O)N[C@@H](C)C(=O)NCCCN4CCCC4)cs3)nc2-c2csc(n2)[C@@H]2COC(=O)c3c4c5c(cccc5n3O)COC(=O)[C@@H](O[C@H]3C[C@](C)(O)[C@H](N(C)C)[C@H](C)O3)[C@@H](OC4)[C@H](NC(=O)c3csc1n3)c1nc(cs1)C(=O)N2", "values": [{"measurement": "MIC", "setting": "Staphylococcus aureus", "value": 0.25, "unit": "µg/mL"}, {"measurement": "MIC", "setting": "Streptococcus pneumoniae", "value": 0.25, "unit": "µg/mL"}, {"measurement": "MIC", "setting": "Enterococcus faecalis", "value": 0.5, "unit": "µg/mL"}, {"measurement": "solubility", "setting": "[6]", "value": "> 2600", "unit": "µg/mL"}]}
{"smiles": "CO/C(C)=C1/NC(=O)[C@H]([C@@H](C)O)NC(=O)c2csc(n2)-c2cc(O)c(-c3nc(C(=O)N[C@@H](C)C(=O)NCCc4ccc(S(=O)(=O)O)cc4)cs3)nc2-c2csc(n2)[C@@H]2COC(=O)c3c4c5c(cccc5n3O)COC(=O)[C@@H](O[C@H]3C[C@](C)(O)[C@H](N(C)C)[C@H](C)O3)[C@@H](OC4)[C@H](NC(=O)c3csc1n3)c1nc(cs1)C(=O)N2", "values": [{"measurement": "solubility", "setting": "[10]", "value": "> 1200", "unit": "µg/mL"}, {"measurement": "MIC", "setting": "Staphylococcus aureus", "value": 0.5, "unit": "µg/mL"}, {"measurement": "MIC", "setting": "Streptococcus pneumoniae", "value": 0.125, "unit": "µg/mL"}, {"measurement": "MIC", "setting": "Enterococcus faecalis", "value": 1, "unit": "µg/mL"}, {"measurement": "ED50", "setting": "Mus musculus", "value": "> 10", "unit": "mg/kg"}]}
